The target of one data set is T1, AXL (h) (Homo sapiens, UniProt P30530).
T1 construct: purchased Eurofins Discovery
As to the kind of experiment: Radiometric kinase panel assay. Conditions: Km ATP. It counts as biochemical.

The subject of the next data set is HT-29 cells. As to the kind of experiment: SRB antiproliferative assay, monolayer culture. To be noted: Homo sapiens, HT-29, 72 h, mean ± S.E.M. It counts as cell-based, human. The procedure: (§1) EBC-1 (human lung […] cells with MET gene amplification) and Mia-Paca-2 (human PDAC cells) were obtained from Japanese Collection of Research Bio Resources Cell Bank (JCRB). AsPC-1 (human PDAC), MKN-45 (human gastric adenocarcinoma cells with MET gene amplification), HT-29 (human colorectal adenocarcinoma), and K562 cells (human chronic myelogenous leukemia) were obtained from the Iranian Biological Resource Centre, Tehran, Iran. AsPC-1, EBC-1, MKN-45, and K562 cells were cultured in RPMI 1640 medium containing 10% heat-inactivated fetal bovine serum (FBS) and 1% penicillin/streptomycin. Mia-Paca-2 and HT-29 cells were grown in DMEM low glucose, containing 10% and 20% heat-inactivated FBS, resoectively and 100 U/ml penicillin/streptomycin. All cells were grown in monolayer cultures at 37 °C in a humidified incubator with 5% CO2.
(§2) Antiproliferative effects of synthetic compounds were evaluated by the SRB assay as described previously. Cancer cells were trypsinized, homogenous cell suspensions were prepared and 100 µl of cell suspensions were cultured at the densities of 5 × 10^4 cells/ml (for AsPC-1 and Mia-Paca-2), 4 × 10^4 cells/m (for EBC-1 and MKN-45), 3 × 10^4 cells/ml (for K562) and 1 × 10^4 cells/ml (for HT-29) in 96-well flat-bottom plates. After 24 h of incubation to allow cells to attach and resume optimal growth, the synthetic compounds dissolved in DMSO and diluted in the growth medium were added. One hundred µl of synthesized derivatives were added at different concentrations in triplicate and incubated for an additional 72 h at 37 °C. The cells were then fixed by gentle addition of 50 μl cold trichloroacetic acid (TCA) 50% (w/v, 10% final concentration) and incubated for 60 min at 4 °C. Then, the supernatant was discarded, and the plates were washed four times with distilled water and air dried. Afterwards, 100 μl of SRB solution 0.04% (w/v) dissolved in 1% acetic acid was added to each well, and plates were incubated for 15 min at room temperature. At the next step, the unbound dye was removed by washing four times with 1% acetic acid and the plates were air dried. The bound stain was finally solubilized with 150 μl of 10 mM Tris base solution, and the absorbance was recorded at a wavelength of 540 nm with a Bio-Tek microplate reader (Model Synergy HTX).
(The SRB assay estimates cell density from bound dye.)

The next data set deals with AsPC-1 cells. Description: SRB antiproliferative assay, monolayer culture. The data set is classed as cell-based, human. To be noted: Homo sapiens, ASPC1, 72 h, mean ± S.E.M. The method, then: as §1, §2
For a further data set, the target named is T2, MET kinase (Homo sapiens, UniProt P08581).
T2 construct: purchased Millipore
Description: MET kinase enzymatic HTRF assay. The data set is classed as biochemical. The procedure:
HTRF assay detects the phosphorylation level of a biotinylated tyrosine kinase substrate peptide (TK substrate) by MET kinase. The HTRF® KinEASE™ TK kit and MET kinase were purchased from Cisbio and Millipore, respectively. The optimal conditions for enzyme, substrate, ATP concentrations, and enzymatic reaction times were set.
In order to prepare the test compounds, after dissolving in DMSO, they were diluted in the reaction buffer containing 50 mM HEPES pH 7.0, 0.1 mM sodium orthovanadate, 0.01% BSA, 0.02% NaN3, 10 mM MgCl2, 5 mM MnCl2, 2 mM DTT. […] Finally, the Time Resolved-Fluorescence Resonance Energy Transfer (TR-FRET) signal was measured after an hour of incubation at room temperature.
The following equations were used to determine the inhibition rate (%): Ratio665/620=Emission665 nm/Emission620nm ΔR=Ratio Sample665/620-Ratio Background665/620∗100/Ratio Background665/620 Inhibition%=ΔRControl-ΔRSample∗100/ΔRControl
Background samples contained all reagents except for the enzyme. Control wells contained the same amount of DMSO contained in the sample.
In general terms: TR-FRET usually uses a lanthanide donor and a delayed reading to cut background.

For the next data set, the target named is T3, RET (h) (Homo sapiens, UniProt P07949).
T3 construct: purchased Eurofins Discovery
Description: Radiometric kinase panel assay. Conditions: Km ATP. The data set is classed as biochemical.

In a further data set the target is T4, MAPK1 (h) (Homo sapiens, UniProt P27361).
T4 construct: purchased Eurofins Discovery
Description: Radiometric kinase panel assay. It counts as biochemical. Conditions: Km ATP.

The next data set has as its target T5, FLT1 (h) (Homo sapiens, UniProt P17948).
T5 construct: purchased Eurofins Discovery
Description: Radiometric kinase panel assay. The data set is classed as biochemical. To be noted: Km ATP.

The next data set addresses T6, EGFR (h) (Homo sapiens, UniProt P00533).
T6 construct: purchased Eurofins Discovery
Description: Radiometric kinase panel assay. It counts as biochemical. To be noted: Km ATP.

The target of another data set is T7, AKT2 (h) (Homo sapiens, UniProt P31751).
T7 construct: purchased Eurofins Discovery
As to the kind of experiment: Radiometric kinase panel assay. It counts as biochemical. To be noted: Km ATP.

A further data set has as its target T8, MAPK2 (m) (Mus musculus, UniProt P63085).
T8 construct: purchased Eurofins Discovery
As to the kind of experiment: Radiometric kinase panel assay. The data set is classed as biochemical. To be noted: Km ATP.

Structures are written as SMILES.

T2 sequence (P08581 25-1390): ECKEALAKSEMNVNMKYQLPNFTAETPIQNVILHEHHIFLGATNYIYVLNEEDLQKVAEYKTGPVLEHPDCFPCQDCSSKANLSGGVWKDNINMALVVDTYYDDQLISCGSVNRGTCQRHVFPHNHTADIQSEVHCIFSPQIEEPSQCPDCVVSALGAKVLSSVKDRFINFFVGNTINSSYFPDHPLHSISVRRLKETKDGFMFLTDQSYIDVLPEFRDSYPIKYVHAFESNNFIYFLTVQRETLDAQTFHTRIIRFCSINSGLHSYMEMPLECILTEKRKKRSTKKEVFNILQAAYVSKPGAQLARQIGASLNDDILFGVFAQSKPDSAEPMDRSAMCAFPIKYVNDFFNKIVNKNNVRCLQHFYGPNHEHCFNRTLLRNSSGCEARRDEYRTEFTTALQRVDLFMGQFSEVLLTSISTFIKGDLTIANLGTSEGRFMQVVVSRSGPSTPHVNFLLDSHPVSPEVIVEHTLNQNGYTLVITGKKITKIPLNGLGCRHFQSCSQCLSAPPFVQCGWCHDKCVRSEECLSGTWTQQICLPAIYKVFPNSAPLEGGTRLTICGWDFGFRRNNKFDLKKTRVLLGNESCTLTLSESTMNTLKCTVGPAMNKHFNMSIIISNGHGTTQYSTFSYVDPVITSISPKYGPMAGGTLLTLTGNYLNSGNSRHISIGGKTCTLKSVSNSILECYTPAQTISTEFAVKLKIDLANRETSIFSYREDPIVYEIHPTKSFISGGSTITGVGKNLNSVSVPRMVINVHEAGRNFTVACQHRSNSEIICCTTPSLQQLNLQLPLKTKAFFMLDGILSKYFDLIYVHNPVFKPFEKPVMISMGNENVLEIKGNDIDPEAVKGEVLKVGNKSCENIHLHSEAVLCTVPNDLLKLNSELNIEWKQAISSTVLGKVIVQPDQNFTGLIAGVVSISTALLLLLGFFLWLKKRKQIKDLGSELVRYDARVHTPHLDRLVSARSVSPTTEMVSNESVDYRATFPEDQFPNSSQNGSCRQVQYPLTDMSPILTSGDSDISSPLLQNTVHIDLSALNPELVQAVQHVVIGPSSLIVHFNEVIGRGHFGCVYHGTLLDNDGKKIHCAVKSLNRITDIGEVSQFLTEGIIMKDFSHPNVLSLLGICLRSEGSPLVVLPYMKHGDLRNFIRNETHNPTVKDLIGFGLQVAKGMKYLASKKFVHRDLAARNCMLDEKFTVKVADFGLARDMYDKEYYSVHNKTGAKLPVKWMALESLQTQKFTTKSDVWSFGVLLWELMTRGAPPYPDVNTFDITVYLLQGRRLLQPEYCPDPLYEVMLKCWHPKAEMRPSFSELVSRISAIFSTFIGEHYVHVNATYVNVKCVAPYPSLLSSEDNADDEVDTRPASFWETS
T6 sequence (P00533 25-1210): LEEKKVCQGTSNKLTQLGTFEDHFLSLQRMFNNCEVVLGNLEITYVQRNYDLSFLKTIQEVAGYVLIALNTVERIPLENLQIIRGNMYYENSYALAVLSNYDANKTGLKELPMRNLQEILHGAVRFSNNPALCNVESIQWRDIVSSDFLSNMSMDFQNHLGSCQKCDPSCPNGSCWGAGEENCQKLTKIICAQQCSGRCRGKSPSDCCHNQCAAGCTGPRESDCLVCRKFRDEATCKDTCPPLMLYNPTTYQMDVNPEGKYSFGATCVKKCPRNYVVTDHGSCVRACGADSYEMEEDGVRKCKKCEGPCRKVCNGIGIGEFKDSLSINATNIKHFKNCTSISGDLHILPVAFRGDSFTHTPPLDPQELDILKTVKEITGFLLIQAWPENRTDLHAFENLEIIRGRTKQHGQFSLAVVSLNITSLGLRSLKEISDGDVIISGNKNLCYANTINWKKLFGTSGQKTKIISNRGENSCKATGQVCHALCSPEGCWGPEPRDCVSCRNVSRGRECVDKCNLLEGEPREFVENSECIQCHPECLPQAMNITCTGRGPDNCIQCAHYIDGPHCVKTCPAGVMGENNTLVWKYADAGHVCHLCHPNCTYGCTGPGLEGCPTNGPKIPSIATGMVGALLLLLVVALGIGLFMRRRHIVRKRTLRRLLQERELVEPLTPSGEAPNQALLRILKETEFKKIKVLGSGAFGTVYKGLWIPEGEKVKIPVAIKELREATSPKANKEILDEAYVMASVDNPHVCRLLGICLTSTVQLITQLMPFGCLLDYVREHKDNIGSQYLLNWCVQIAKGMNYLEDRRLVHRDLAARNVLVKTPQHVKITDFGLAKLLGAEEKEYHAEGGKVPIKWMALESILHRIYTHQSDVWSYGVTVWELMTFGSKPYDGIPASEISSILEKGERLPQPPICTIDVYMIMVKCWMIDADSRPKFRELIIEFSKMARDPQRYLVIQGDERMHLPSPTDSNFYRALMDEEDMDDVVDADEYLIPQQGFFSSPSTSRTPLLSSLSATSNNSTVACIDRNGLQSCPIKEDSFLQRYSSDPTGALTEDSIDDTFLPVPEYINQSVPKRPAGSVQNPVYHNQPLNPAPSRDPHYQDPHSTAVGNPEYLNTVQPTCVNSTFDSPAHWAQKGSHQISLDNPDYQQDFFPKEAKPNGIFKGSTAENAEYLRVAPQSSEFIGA
T1 sequence (P30530 26-894): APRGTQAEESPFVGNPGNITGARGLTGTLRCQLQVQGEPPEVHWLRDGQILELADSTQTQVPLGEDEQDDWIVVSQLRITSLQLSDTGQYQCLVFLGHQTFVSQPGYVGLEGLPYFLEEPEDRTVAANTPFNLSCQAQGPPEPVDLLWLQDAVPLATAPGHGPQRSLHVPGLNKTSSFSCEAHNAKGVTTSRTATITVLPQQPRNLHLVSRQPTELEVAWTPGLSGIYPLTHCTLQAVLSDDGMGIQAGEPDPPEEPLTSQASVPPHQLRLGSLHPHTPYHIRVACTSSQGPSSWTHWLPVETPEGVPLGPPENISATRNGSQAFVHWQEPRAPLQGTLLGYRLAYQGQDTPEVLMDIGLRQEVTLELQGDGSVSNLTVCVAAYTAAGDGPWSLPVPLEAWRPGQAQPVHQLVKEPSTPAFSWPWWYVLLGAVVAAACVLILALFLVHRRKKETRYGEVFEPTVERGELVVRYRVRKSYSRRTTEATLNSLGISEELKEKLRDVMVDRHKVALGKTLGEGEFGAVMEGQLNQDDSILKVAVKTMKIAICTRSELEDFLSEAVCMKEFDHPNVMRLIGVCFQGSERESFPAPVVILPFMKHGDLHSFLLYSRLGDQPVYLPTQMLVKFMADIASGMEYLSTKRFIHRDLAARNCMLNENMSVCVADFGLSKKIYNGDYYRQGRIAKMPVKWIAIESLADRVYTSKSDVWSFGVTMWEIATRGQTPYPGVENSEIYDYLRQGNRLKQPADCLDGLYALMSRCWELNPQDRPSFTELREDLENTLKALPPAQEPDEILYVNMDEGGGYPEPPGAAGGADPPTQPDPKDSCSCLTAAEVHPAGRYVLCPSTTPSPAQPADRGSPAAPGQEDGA
T5 sequence (P17948 27-1338): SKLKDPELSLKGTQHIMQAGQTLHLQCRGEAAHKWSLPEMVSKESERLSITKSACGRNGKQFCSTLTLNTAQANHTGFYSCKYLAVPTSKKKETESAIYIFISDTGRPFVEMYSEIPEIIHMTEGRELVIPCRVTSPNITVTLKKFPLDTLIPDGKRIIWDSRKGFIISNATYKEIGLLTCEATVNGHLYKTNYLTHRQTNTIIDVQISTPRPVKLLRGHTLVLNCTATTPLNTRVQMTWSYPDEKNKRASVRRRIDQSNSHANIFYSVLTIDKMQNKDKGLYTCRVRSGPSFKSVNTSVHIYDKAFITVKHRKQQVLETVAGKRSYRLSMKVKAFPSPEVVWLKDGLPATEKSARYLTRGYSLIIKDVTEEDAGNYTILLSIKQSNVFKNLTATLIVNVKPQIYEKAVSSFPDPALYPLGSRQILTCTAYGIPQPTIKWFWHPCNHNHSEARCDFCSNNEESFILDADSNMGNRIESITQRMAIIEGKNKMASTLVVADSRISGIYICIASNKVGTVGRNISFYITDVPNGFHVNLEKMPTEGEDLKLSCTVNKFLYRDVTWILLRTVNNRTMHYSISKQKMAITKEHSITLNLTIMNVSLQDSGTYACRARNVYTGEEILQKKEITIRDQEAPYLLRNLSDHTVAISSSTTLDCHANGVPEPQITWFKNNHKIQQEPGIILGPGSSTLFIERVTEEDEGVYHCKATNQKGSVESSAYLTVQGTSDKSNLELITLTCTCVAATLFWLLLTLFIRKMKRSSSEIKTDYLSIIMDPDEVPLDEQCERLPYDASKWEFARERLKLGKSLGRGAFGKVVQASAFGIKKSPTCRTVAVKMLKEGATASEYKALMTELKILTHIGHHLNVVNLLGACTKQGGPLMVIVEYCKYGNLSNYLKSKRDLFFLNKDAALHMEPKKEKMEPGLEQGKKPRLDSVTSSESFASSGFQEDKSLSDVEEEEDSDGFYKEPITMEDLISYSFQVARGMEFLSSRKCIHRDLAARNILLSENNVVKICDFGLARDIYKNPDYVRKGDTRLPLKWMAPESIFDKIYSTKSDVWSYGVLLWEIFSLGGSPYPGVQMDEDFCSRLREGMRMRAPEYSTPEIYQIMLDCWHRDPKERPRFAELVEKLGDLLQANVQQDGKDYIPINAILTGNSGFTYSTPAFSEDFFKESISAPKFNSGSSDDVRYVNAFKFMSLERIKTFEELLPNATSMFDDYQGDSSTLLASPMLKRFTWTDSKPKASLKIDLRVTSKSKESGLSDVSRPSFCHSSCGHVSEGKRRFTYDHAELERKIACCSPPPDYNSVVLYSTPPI
T8 sequence (P63085 whole entry): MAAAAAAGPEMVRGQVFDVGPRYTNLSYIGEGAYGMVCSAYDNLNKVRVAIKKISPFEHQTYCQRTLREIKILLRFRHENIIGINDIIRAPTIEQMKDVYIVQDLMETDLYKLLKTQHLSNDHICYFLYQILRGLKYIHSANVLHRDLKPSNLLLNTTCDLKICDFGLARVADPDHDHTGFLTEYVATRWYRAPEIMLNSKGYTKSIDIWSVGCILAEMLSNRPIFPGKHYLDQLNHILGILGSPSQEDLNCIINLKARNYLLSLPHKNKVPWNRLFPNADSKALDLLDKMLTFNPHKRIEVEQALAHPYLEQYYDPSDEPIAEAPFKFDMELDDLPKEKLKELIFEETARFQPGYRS

Usually IC50 stands for the point on the concentration scale where inhibition reaches its midpoint. As for `Cc1ccc(Cn2cc(COc3ccc(C=NNc4ncnc5ccccc45)cc3)nn2)cc1` [Compound 8c, 2-(4-((1-(4-Methylbenzyl)-1H-1,2,3-triazol-4-yl)methoxy)benzylidene)-1-(quinazolin-4-yl)hydrazine], the inhibition at 10 µM against AXL (h) came to 12%; at RET (h), 10%; against MAPK1 (h), 5%; against FLT1 (h), 2%; on EGFR (h) it was 8%. In addition, the IC50 was 21 ± 4.7 µM with HT-29 cells; 15.3 ± 2.3 µM in the data set on AsPC-1 cells; 36 ± 9.5 µM at MET kinase (HTRF assay, read-out: MET kinase inhibition IC50).
The term melting point denotes the temperature of the solid-liquid transition. With `CC(C)(C)c1ccc(Cn2cc(COc3ccc(C=NNc4ncnc5ccccc45)cc3)nn2)cc1` [Compound 8h, 2-(4-((1-(4-Tert-butylbenzyl)-1H-1,2,3-triazol-4-yl)methoxy)benzylidene)-1-(quinazolin-4-yl)hydrazine], the melting point stood at 205.4 °C. The compound also yielded an inhibition at 10 µM against AKT2 (h) of 18%. For the same compound, the IC50 in the data set with HT-29 cells came to 8.6 ± 1.3 µM. Also, in the data set with AsPC-1 cells, the IC50 was 9.7 ± 1.9 µM. The inhibition at 10 µM on MET kinase (at 10 μM, mean ± S.E.M., read-out: Inhibitory effect against MET kinase) worked out at 22 ± 7.4%. Besides, the inhibition at 25 µM at MET kinase (at 25 μM, mean ± S.E.M., read-out: Inhibitory effect against MET kinase) came out at 25.7 ± 4.7%. Also, the inhibition at 50 µM on MET kinase (at 50 μM, mean ± S.E.M., read-out: Inhibitory effect against MET kinase) was found to be 32.9 ± 2.2%. On MAPK2 (m), this compound registered an inhibition at 10 µM of 7%.

The values are drawn from publication PMC10482942, “Novel quinazoline-1,2,3-triazole hybrids with anticancer and MET kinase targeting properties” (Scientific Reports, 2023).
